The source of these data is patent publication US20230416261A1, “ETHANEDIAMINE-HETEROCYCLE DERIVATIVES AS INHIBITORS OF PROTEIN ARGININE METHYLTRANSFERASES” (Board of Regents, The University of Texas System, priority 2021, published 2023).

Experiment [1] concerns the target PRMT1 (Homo sapiens, UniProt Q99873). Nature of the experiment: PRMT1 Enzymatic Assay (LANCE TR-FRET, methylation of histone H4 at Arg3). The experiment is classed as biochemical. On the set-up: purchased SignalChem P365-380G. The note with it: PRMT1 1.5 nM, SAM 1 μM, biotinylated histone H4 (1-21) 25 nM; read-out: PRMT-1 IC50. An outline of the steps:
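PRMT1 (1.5 nM) preincubated 15 min with compound at room temperature, then reacted 1 h with 1 μM SAM and 25 nM biotinylated histone H4 (1-21) in 50 mM Hepes pH 8, 1 mM TCEP, 0.003% Tween-20. H4R3me detected by TR-FRET (665/620 nm ratio); IC50 from four-parameter logistic fit.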
(Time-resolved FRET reads energy transfer from a long-lived donor to a nearby acceptor.)

Experiment [2] concerns PANC-1 (pancreatic ductal adenocarcinoma) xenograft. Nature of the experiment: Anti-tumor effects in PANC-1 mouse xenograft model. The format is in vivo. To be noted: BID, 28 days, C.B-17 SCID mice. As for the experimental part:
The effect of the compounds of Examples 1 and 2 on tumor growth was assessed in a PANC-1 (pancreatic ductal adenocarcinoma) mouse xenograft model. Female C.B -Igh-I^b/IcrTac-Prkdc^scid (C.B-17 SCID) mice were injected subcutaneously in the right flank with a suspension of […] cells (5 million cells with 50% Matrigel (Corning #356231) in sterile Dulbecco's phosphate buffered saline (DPBS, Life Technologies #14190-144). After implantation, tumor volume (TV) was measured weekly and mice bearing tumors with volumes ˜200 mm^3 were randomized into treatment groups of 8 mice each. Mice were dosed by oral gavage, twice daily for 28 days with either vehicle or 1 and 2 at the doses reported in Table 6 and Table 7 respectively. The doses were scaled to the body weights (BW) of individual animals at a dosing volume of 5 mL/Kg. Throughout the duration of study tumor growth was assessed by caliper measurement and treatment response was determined by percent tumor growth inhibition (% TGI; calculated as TGI %=(Ci−Ti)/(Ci−C0)*100%; Ci and Ti are the mean tumor volumes of the vehicle and treatment groups on the measurement day, respectively; C0 is the mean tumor volume of the vehicle group on day 0 (i.e. the day before treatment started). Mouse body weight was measured bi-weekly and reported as percentage of BW change from day 0 (calculated as Body Weight Change %=(BWi−BW0)/BW0*100%; BWi and BW0 are body weight of an individual mouse on measurement day i and on day 0, respectively). Statistical significance was calculated by repeated-measures two-way ANOVA with multiple comparisons and Tukey correction using GraphPad Prism 8.0.

The test system of experiment [3] is PATC53 cells. Put plainly: PATC53 Long Term Phenotypic Assay (14 days, crystal violet viability). The experiment is classed as cell-based. The note with it: 336 h. The method, boiled down: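 Cells seeded at 250 per well, allowed 24 h to settle, then treated with 1:3 serial dilutions of compound for 14 days at 37 °C, 5% CO2. Viability measured by crystal violet staining, solubilised in 10% HOAc, absorbance 590 nm; IC50 from four-parameter logistic fit.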

Sequence of PRMT1 (Q99873 whole entry): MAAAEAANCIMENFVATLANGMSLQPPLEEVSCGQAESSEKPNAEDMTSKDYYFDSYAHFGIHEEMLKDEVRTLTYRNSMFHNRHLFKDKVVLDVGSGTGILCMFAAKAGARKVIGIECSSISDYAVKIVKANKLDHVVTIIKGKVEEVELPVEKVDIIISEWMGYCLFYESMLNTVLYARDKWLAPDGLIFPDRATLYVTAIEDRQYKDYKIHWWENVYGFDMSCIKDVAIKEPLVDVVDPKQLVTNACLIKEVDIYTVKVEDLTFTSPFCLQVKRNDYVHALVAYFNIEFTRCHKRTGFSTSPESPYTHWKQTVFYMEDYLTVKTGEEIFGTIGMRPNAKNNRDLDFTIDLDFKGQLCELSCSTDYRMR

Turning to `CNCCN(C)Cc1nn2c(c1C1CCC(COC)(COC)CC1)CN(C(=O)C1CCC1)CC2` [Example 1, (3-(4,4-Bis(methoxymethyl)cyclohexyl)-2-((methyl(2-(methylamino)ethyl)amino)methyl)-6,7-dihydropyrazolo[1,5-a]pyrazin-5(4H)-yl)(cyclobutyl)methanone], the IC50 (in general, the concentration that gives 50% inhibition) amounted to 35 nM in experiment [1] and 45 nM in experiment [3]. The “Tumor Growth Inhibition % (TGI %; day 28)” value turned out to be 49% in experiment [2] (150 mg/Kg PO) and 68% in experiment [2] (225 mg/Kg PO).
As to `COCC1(COC)CCC(c2c(CN(C)CCN)nn3c2CN(C(=O)C(C)(C)C)CC3)CC1` [Example 2, 1-(2-(((2-aminoethyl)(methyl)amino)methyl)-3-(4,4-bis(methoxymethyl)cyclohexyl)-6,7-dihydropyrazolo[1,5-a]pyrazin-5(4H)-yl)-2,2-dimethylpropan-1-one], the IC50 in experiment [1] was found to be 16 nM; in experiment [3] it was 152 nM. Also, the “Tumor Growth Inhibition % (TGI %; day 28)” value in experiment [2] (150 mg/Kg PO) came out at 48%; in experiment [2] (225 mg/Kg PO) it was 70%.
